Experimental data as given in US11766468B2, “Method of treating prostate cancer with GnRH antagonist” (priority 2012, dated 2023).
Square brackets hold non-standard residues; d marks the D form. Peptide text beside a SMILES is read from it. * marks the point of attachment. dPhe(4-NHCONH2) = NC(=O)Nc1ccc(C[C@@H](N)C(=O)O)cc1; Dihydroorotyl(S) = O=C1C[C@@H](C(=O)*)NC(=O)N1; dPhe(4-Cl) = N[C@H](Cc1ccc(Cl)cc1)C(=O)O; Phe(4-NH2) = Nc1ccc(C[C@H](N)C(=O)O)cc1; d2Nal = N[C@H](Cc1ccc2ccccc2c1)C(=O)O; Lys(iPr) = CC(C)NCCCC[C@H](N)C(=O)O; d3Pal = N[C@H](Cc1cccnc1)C(=O)O

Columns and labels:
[1] = system: follicle stimulating hormone (FSH); assay: CS21: serum FSH over time; format: in vivo, human; conditions: by day 7
Protocol: (§1) Finally, the study evaluated the pharmacokinetics of the degarelix dosing regimens investigated.
(§2) The secondary efficacy endpoints were: the proportion of patients with testosterone surge during the first 2 weeks of treatment; the proportion of patients with testosterone level ≤0.5 ng/mL at day 3; the percentage change in PSA from baseline to day 28; the probability of testosterone ≤0.5 ng/mL from day 56 through day 364; the levels of serum testosterone, LH, FSH and PSA over time through the study; the time to PSA failure, defined as two consecutive increases of 50%, and at least 5 ng/mL as compared to nadir; degarelix concentration over the first month and trough levels at day 308 and 336; the frequency and size of testosterone increases at day 255 and/or 259 compared to the testosterone level at day 252; the quality of life on days 0, 28, 84, 168 and end of study visit; the frequency and intensity of hot flushes experienced (scored daily from study start until end of study visit. In addition, two further secondary endpoints were added: the probability of sufficient testosterone response from day 28 through day 364 (a patient was considered to have insufficient testosterone response if they had one testosterone value >1.0 ng/mL or two consecutive testosterone values >0.5 ng/mL at day 28 onwards); and the percentage change in PSA from baseline to Day 14.

testosterone = assay: CS21 phase 3 study, degarelix vs leuprolide 7.5 mg: serum testosterone suppression; format: in vivo, human; conditions: for Probability of sufficient testosterone response / Probability of testosterone ≤0.5 ng/mL from Day 28 through Day 364 / Probability of testosterone ≤0.5 ng/mL from Day 56 through Day 364: age <65
Protocol: In this example, an open-label, multi-center, randomized, parallel-group study was conducted to investigate the efficacy and safety of degarelix one month dosing regimens. […] These degarelix dosing regimens were compared to LUPRON DEPOT™ at 7.5 mg in patients with prostate cancer requiring androgen ablation therapy. […] Finally, the study evaluated the pharmacokinetics of the degarelix dosing regimens investigated. […] The primary efficacy endpoint was analyzed for both the ITT and PP analysis sets, with the ITT analysis set considered primary. The primary efficacy endpoint was analyzed using the Kaplan Meier method. For each of the three treatment groups, testosterone response rates with 95% confidence interval (CI) were calculated by log-log transformation of survivor function. […] All secondary efficacy endpoints were analyzed for both the ITT and PP analysis sets, unless otherwise stated. […] The percentage change in PSA from baseline to day 28 endpoint was analyzed by a Wilcoxon test. […] The secondary endpoints; probability of testosterone ≤0.5 ng/mL from Day 56 through Day 364, time to PSA failure and probability of sufficient testosterone response from Day 28 through Day 364 were analyzed by the Kaplan-Meier method.

[2] = in vivo
Protocol: Body weight was measured at screening and the end of study visit.

luteinizing hormone (LH) = assay: CS21: serum LH over time; format: in vivo, human; conditions: day 1
Protocol: as §1, §2

[3] = system: prostate-specific antigen (PSA); assay: CS21: PSA response and PSA failure; format: in vivo, human; conditions: for Day 14 percentage change in PSA, median / Day 28 percentage change in PSA, median: Day 0 dose degarelix 240@40
Protocol: as §2
All secondary efficacy endpoints were analyzed for both the ITT and PP analysis sets, unless otherwise stated. The proportion of patients with testosterone surge during the first 2 weeks of treatment was analyzed using Fisher's exact test. Fisher's exact test was also used to analyze the proportion of patients with testosterone level ≤0.5 ng/mL at day 3. The percentage change in PSA from baseline to day 28 endpoint was analyzed by a Wilcoxon test.
The secondary endpoints; probability of testosterone ≤0.5 ng/mL from Day 56 through Day 364, time to PSA failure and probability of sufficient testosterone response from Day 28 through Day 364 were analyzed by the Kaplan-Meier method.

[4] = CS21: incidence rates of cardiovascular events per 1,000 person years (Poisson model), by risk-factor subgroup
Description: The SCS summarizes both crude incidences (n/N) as well as incidence rates of adverse events (number of patients with at least one adverse event investigated per 1,000 person years) including exact 95% CI based on the Poisson model and presented per MedDRA Preferred term (and grouped by SOC) for all study-groups, including the CS21 trial (the trial comprising the controlled phase 3 study group) and for all sub-groups. Briefly, the Poisson model provides exact 1-α lower (LL) and upper (UL) confidence limits are LL=χ2x; α/2^2/(2T) and UL=χ2(x+1); 1-α/2^2/(2T), respectively, where T is the number of 1,000 person years and x=number of subjects at least once having reported the adverse event under investigation (see Gerlinger et al. (2003) Eur. J. Contracept. Reprod. Health Care 8:87-92).
These P values were presented as *(0.01<P≤0.05), ** (0.001<P≤0.01), and *** (P≤0.001). Similarly, incidence rates were compared using P values associated with the Poison model-based UMPU test. Briefly, assuming xi˜Poisson(λiTi), where xi=the number of subjects with the event, Ti=total number of 1,000 person years in arm i and λi=incidence rate in arm i (i=1,2), then the P value=2 min ([…], P(S≤x1), 0.5), where S˜Binomial (x1+x2, T1/(T1+T2)) (see, e.g. Lehmann (1986) Testing Statistical Hypotheses, 2nd edition, Springer-Verlag, New York).
In the SCS, cardiovascular events were more specifically investigated on more aggregated MedDRA levels, i.e. the incidence, and incidence rates of subject with AEs in the following High Level Group Terms were tabulated by study group and treatment:
These subgroup analyses were not pre-planned as part of the SCS.

[5] = degarelix 240@40/80@20, LUPRON DEPOT 7.5 mg
[6] = degarelix 240/80 mg, leuprolide 7.5 mg

## CC(=O)N[C@H](Cc1ccc2ccccc2c1)C(=O)N[C@H](Cc1ccc(Cl)cc1)C(=O)N[C@H](Cc1cccnc1)C(=O)N[C@@H](CO)C(=O)N[C@@H](Cc1ccc(NC(=O)[C@@H]2CC(=O)NC(=O)N2)cc1)C(=O)N[C@H](Cc1ccc(NC(N)=O)cc1)C(=O)N[C@@H](CC(C)C)C(=O)N[C@@H](CCCCNC(C)C)C(=O)N1CCC[C@H]1C(=O)N[C@H](C)C(N)=O [Degarelix, D-Alaninamide, N-acetyl-3-(2-naphthalenyl)-D-alanyl-4-chloro-D-phenylalanyl-3-(3-pyridinyl)-D-alanyl-L-seryl-4-[[[(4S)-hexahydro-2,6-dioxo-4-pyrimidinyl]carbonyl]amino]-L phenylalanyl-4-[(aminocarbonyl)amino]-D-phenylalanyl-L leucyl-N6-(1-methylethyl)-L-lysyl-L-prolyl] (Ac-[d2Nal][dPhe(4-Cl)][d3Pal]S[Phe(4-NH2)](Dihydroorotyl(S))[dPhe(4-NHCONH2)]L[Lys(iPr)]P[dA]-NH2)
[1]
  decrease in median FSH from baseline: > 80%
  median FSH level: ≤ 1.5 IU/L
testosterone; after one year of treatment, 80 mg monthly
  median testosterone level: 0.087 ng/mL
testosterone; degarelix 240/160@40
  Probability of sufficient testosterone response: 96.7%
  Probability of testosterone ≤0.5 ng/mL from Day 28 through Day 364: 96.7%
  Probability of testosterone ≤0.5 ng/mL from Day 56 through Day 364: 96.7%
testosterone; [5]
  Probability of sufficient testosterone response: 97.4%
  Probability of testosterone ≤0.5 ng/mL from Day 28 through Day 364: 97.4%
  Probability of testosterone ≤0.5 ng/mL from Day 56 through Day 364: 97.4%
testosterone; day 3
  patients with testosterone suppression on day 3: 96%
testosterone; [6]
  Kaplan-Meier probability of testosterone ≤0.5 ng/mL from day 28 to day 364: 97.2%
  observed cases analysis: proportion of patients with testosterone ≤0.5 ng/mL from day 28 to day 364: 97.0%
testosterone; degarelix 240/160 mg
  Kaplan-Meier probability of testosterone ≤0.5 ng/mL from day 28 to day 364: 98.3%
  observed cases analysis: proportion of patients with testosterone ≤0.5 ng/mL from day 28 to day 364: 98.2%
testosterone; first two weeks, pooled degarelix, leuprolide 7.5 mg
  patients with testosterone surge (increase ≥15% from baseline): 0.2%
testosterone; maintenance monthly 80 mg, at least one year
  patients with sustained testosterone suppression: 97%
[2]
  markedly abnormal increases in weight of ≥7% from baseline, % of patients: 10%
Luteinizing hormone (LH)
  decrease in median LH from baseline: approximately 88%
  median LH level: < 0.7 IU/L
[3]; PCA = Localized
  Day 14 percentage change in PSA, median: −50.6%
  Day 28 percentage change in PSA, median: −75.0%
[3]; PCA = Metastatic
  Day 14 percentage change in PSA, median: −77.9%
  Day 28 percentage change in PSA, median: −89.9%
[3]; PCA Locally advanced
  Day 14 percentage change in PSA, median: −66.6%
  Day 28 percentage change in PSA, median: −84.1%
[3]; age <65, degarelix 240/160@40
  Probability of no PSA failure: 71.6%
[3]; age <65, degarelix 240@40/80@20, LUPRON DEPOT 7.5 mg
  Probability of no PSA failure: 85.2%
[3]; age >=75, degarelix 240/160@40
  Probability of no PSA failure: 94.5%
[3]; age >=75, degarelix 240@40/80@20, LUPRON DEPOT 7.5 mg
  Probability of no PSA failure: 96.6%
[3]; day 14
  probability of a PSA observation from the pooled degarelix groups being less than one from the leuprolide 7.5 mg group: 0.82
[3]; day 28
  probability of a PSA observation from the pooled degarelix groups being less than one from the leuprolide 7.5 mg group: 0.70
[3]; [6]
  probability of completing the study without experiencing PSA failure: 91.2%
[3]; degarelix 240/160 mg
  probability of completing the study without experiencing PSA failure: ~85.8%
[4]; BMI 25-<30 kg/m2
  Cardiac arrhythmias, relative risk degarelix vs Lupron: 0.566
  Cardiac disorders (SOC), relative risk degarelix vs Lupron: 0.765
  Coronary artery disorders, relative risk degarelix vs Lupron: 1.013
[4]; BMI <25 kg/m2
  Cardiac arrhythmias, relative risk degarelix vs Lupron: 0.312
  Cardiac disorders (SOC), relative risk degarelix vs Lupron: 0.242
  Coronary artery disorders, relative risk degarelix vs Lupron: 0.000
[4]; BMI <25 kg/m2, listed as degarelix
  Coronary artery disorders, relative risk degarelix vs Lupron: 0.0
[4]; BMI >=30 kg/m2
  Cardiac arrhythmias, relative risk degarelix vs Lupron: 3.161
  Cardiac disorders (SOC), relative risk degarelix vs Lupron: 1.946
  Coronary artery disorders, relative risk degarelix vs Lupron: 1.217
[4]; Cholesterol <4 mmol/L
  Cardiac arrhythmias, relative risk degarelix vs Lupron: 1.973
[4]; Cholesterol >=4 mmol/L
  Cardiac arrhythmias, relative risk degarelix vs Lupron: 0.411
[4]; Cholesterol >=4 mmol/L, listed as degarelix
  Cardiac arrhythmias, relative risk degarelix vs Lupron: 0.41
[4]; in vivo
  Coronary artery disease, % of patients: (3%)
  Coronary artery disease, incidence rate: 34.2 per 1,000 person years
  HLGT Cardiac arrhythmias, % of patients: (5%)
  HLGT Cardiac arrhythmias, incidence rate: 57.7 per 1,000 person years
  HLGT Central nervous system vascular disorders, % of patients: (<1%)
  HLGT Central nervous system vascular disorders, incidence rate: 14.2 per 1,000 person years
  HLGT Coronary artery disorders, % of patients: (3%)
  HLGT Coronary artery disorders, incidence rate: 34.2 per 1,000 person years
  HLGT Heart failures, % of patients: (<1%)
  HLGT Heart failures, incidence rate: 14.1 per 1,000 person years
  Heart failure, % of patients: (1%)
  Heart failure, incidence rate: 14.1 per 1,000 person years
  MI, % of patients: (<1%)
  MI, incidence rate: 5.64 per 1,000 person years
  Stroke, % of patients: (<1%)
  Stroke, incidence rate: 8.49 per 1,000 person years
